Literature values in patent US20150164917A1 (VALPHARMA INTERNATIONAL S.P.A., priority 2012, published 2015).

Test system: uterine fibrosis
Details: 5 mg daily oral for 6 months, compared with higher doses

CC#C[C@]1(O)CC[C@H]2[C@@H]3CCC4=CC(=O)CCC4=C3[C@@H](c3ccc(N(C)C)cc3)C[C@@]21C [Mifepristone]
effects in the treatment of uterine fibrosis: effects comparable with those of higher doses of Mifepristone
